Data reported in patent US12599584B2, “Indoline derivatives, compositions comprising them and uses thereof” (Yissum Research Development Company of The Hebrew …, priority 2016, dated 2026).

Tests used:
Caspase 3 = Caspase 3 activity in RAW macrophage 264.7 cells exposed to H2O2; format: cell-based, mouse; details: 1×10^−13M
Method: Oxidative stress can cause apoptosis, a form of cell suicide mediated by a cascade of proteolytic enzymes called caspases (cysteinyl aspartate-specific proteases). Caspase 3 is one of a number of effector caspases. Its activity was measured by means of a luminescent assay (Caspase-Glo 3/7 Assay Promega Ltd). […] The medium was aspirated 90 min later, 100 μL of DMEM was added to each well and the plates kept in an incubator overnight. Caspase-GloR Reagent (100 μL) was added to each well and the contents gently mixed using a plate shaker at 300-500 rpm for 30 sec. The plates were left at room temperature for 30 min and then luminescence of each sample was measured in a plate-reading luminometer (Cytation 3).

[1] = system: TNF-α release from LPS-activated RAW cells; assay: Release of TNF-α from LPS-activated RAW 264.7 macrophages (ELISA); format: cell-based, mouse; details: N-isopropylpropylamine versus propylamine side chain
Method: (§1) Anti-inflammatory activity was measured in RAW 264.7 macrophage cells. The cells were seeded at density of 5×10^4 per well in 48-well culture plates and grown overnight in DMEM as described above. The compounds were added to give final concentrations ranging from 1×10^−12-1×10^−6 M of the respective salts per well. The cells were incubated for 2 h at 37° C. prior to stimulation with lipopolysaccharide (LPS, 2.5 μg/mL) from Escherichia coli (Sigma-Aldrich). Supernatants were harvested after 8 h for detection of TNF-α and after 24 h for nitric oxide (NO). NO production was detected by a colourimetric method using Griess reagent (0.2% naphthylenediamine dihydrochloride, and 2% sulfanilamide in 5% phosphoric acid), which measures the concentration of nitrite, a stable metabolite produced from NO. TNF-α protein was detected by means of the sandwich ELISA method using an ELISA kit (Biolegend, San Diego, CA, USA) according to the manufacturer's instructions.

LPS-injected mice = assay: Pro-inflammatory cytokine proteins in tissues of mice injected with LPS; format: in vivo, mouse; details: sc, 2-3 doses, 15 min before LPS 10 mg/kg ip; 4 h after LPS
Method: Male Balb/c OlaHsd mice (aged 7-8 weeks) were injected subcutaneously (sc) with saline, or with AN1279, AN1283, AN1284, AN1287 and AN1298 at doses that contain approximately the equivalent amount of the base. LPS (10 mg/kg) was given by intraperitoneal injection 15 min later. The mice were sacrificed 4 h later, which was previously shown to be the optimal time for elevation of cytokines in the spleen and brain. The spleen, brain and liver were rapidly removed and frozen in liquid nitrogen and stored at −80° C. until use. A piece of the cortex was taken for gene analysis of cytokines. Blood was collected into heparinized tubes and plasma separated by centrifugation. For measurement of cytokine protein, tissues were weighed and diluted in PBS containing 0.8% NaCl, 0.144% NaHPO4, 0.024% KH2PO4 and protease inhibitor cocktail (Sigma) and homogenised in an Ultra-TURRAX® homogeniser at a speed of 24,000 rpm and centrifuged at 14000 g for 15 min at 4° C. Cytokines were detected by means of Elisa kits (Biolegend) and protein concentration was determined by a bicinchoninic acid protein assay kit (Thermo Scientific, IL, USA).

[2] = system: C57B1/6 mice with STZ-induced diabetes; assay: Diabetic nephropathy induced by streptozotocin (STZ); format: in vivo, mouse
Source text: The renal proximal tubule is uniquely susceptible to a variety of metabolic and hemodynamic factors associated with diabetes, predominantly to hyperglycaemia. Glucose entry into renal proximal tubular cells is insulin-independent, making these cells particularly sensitive to the deleterious effects of chronic hyperglycaemia in subjects with diabetes. To induce diabetic nephropathy, male 20, 8-week-old C57B1/6 mice were given five consecutive intraperitoneal injections of streptozotocin (STZ) (50 mg/kg per day). A control group of 10 mice was given 0.1 mol/L citrate buffer (pH 4.5). Ten days following the last injection of STZ, half the mice were treated twice daily with sc injections of AN1284 2HCl (2 μmoles/kg), or vehicle (saline) for fifteen weeks.

[3] = system: IL-6 in human macrophages; assay: IL-6 in human macrophages after elevation by LPS (ELISA); format: cell-based; details: 24 h after LPS; 1 × 10^−9 M
Method: (§2) Blood (20 ml was collected from healthy human subjects on the day of the experiment in anti-coagulant tubes and diluted in PBS 1:1. Ficol (12 mL) was added into the bottom of the tube, centrifuged slowly for 30 min at 1400 g and peripheral blood mononuclear cells (PBMCs) were separated. Monocytes were isolated by addition of 15 ml of MACS buffer. After centrifugation at 1400 g for 10 min at 4° C., the supernatant fluid was removed, monocytes were isolated by means of a MACS-Monocyte isolation kit (cat: 130-091-153) and incubated at 4-8° C. for 10 min Monocytes (500,000/well) were seeded in 12 multi well plate and cultured for 7 days in RPMI+L-Glutamin+FBS (10%) and PenStrep and h-MCSF (20 ng/mL) to convert them into macrophages. Compounds (AN1284, AN1297, AN1298, 1×10^−10 or 1×10^−9 M) were added 2 h before LPS (100 μg/mL Sigma Ltd. phenol extracted from Escherichia coli 055: B5) and incubated at 37° C., 5% CO2. TNF-α, IL-1β and IL-6 protein were detected by means of the sandwich ELISA method using an ELISA kit for human cytokines (Biolegend, San Diego, CA, USA) according to the manufacturer's instructions.

RERT/TSC1^f/f mice = assay: Tuberous sclerosis model: tamoxifen-induced TSC1 deletion; format: in vivo, mouse
Method: RERT/TSC1^f/f mice develop kidney pathology that resembles human tuberous sclerosis (TSC). Mice bearing a floxed allele of TSC1 were purchased from Jackson laboratories and crossed to homozygosity to the RERT strain, provided by Dr. Mariano Barbacid, Spanish National Cancer Research Centre. The RERT strain contains an IRES-Cre-ERT2 knock in into the large subunit of RNA polymerase II, allowing an inducible deletion in all cell types by administration of tamoxifen. […] The mice were injected sc with tamoxifen to induce TSC1 deletion and its effect assessed on body weight and immunological parameters associated with inflammation. AN1284 (1 μmole/kg of the 2HCl salt) was injected sc, twice daily in a group of 5 female mice 5 weeks after tamoxifen challenge. An untreated group of 5 tamoxifen challenged mice served as controls. The mice were weighed once weekly and observed for development of lethargy and eye closure.

[4] = system: NO release from LPS-activated RAW cells; assay: Release of NO from LPS-activated RAW 264.7 macrophages (Griess); format: cell-based, mouse; details: N-isopropylpropylamine versus propylamine side chain
Method: as §1

[5] = system: TNF-α in human macrophages; assay: TNF-α in human macrophages after elevation by LPS (ELISA); format: cell-based
Method: as §2, with “Compounds (AN1284, AN1297, AN1298, 1×10^−10 or 1×10^−9 M) were added 2 h before LPS (100 μg/mL Sigma Ltd. phenol extracted from Escherichia coli 055: B5) and incubated at 37° C., 5% CO2.” left out

[6] = system: cerulein-induced mouse model; assay: Acute pancreatitis, cerulein-induced mouse model; format: in vivo; details: for Serum amylase: 1 and 2 mg/kg sc 30 min after first cerulein injection, 4 hours; for TNF-α protein in the pancreas: 1 and 2 mg/kg sc, 4 hours after first cerulein injection
Method: The most commonly used animal model for acute pancreatitis is the cerulein-induced mouse model (Su et al., 2006). Cerulein is a cholecystokinin analogue that produces hyperstimulation of the pancreatic acinar cells at supramaximal dosage. The acute necrotizing pancreatitis produced is histopathologically similar to acute human pancreatitis (Van Acker et at, 2007). Groups of 10 Balb/C male mice weighing 24 gm were injected intraperitoneally once every hour for 4 hours with cerulean (50 μg/kg) suspended in saline. AN1297 (1 or 2 mg/kg) or resolvin D (1 mg/kg) or saline that were injected sc. 30 min after the first cerulean injection. Mice were killed by exsanguination at 4 hours after the first cerulein injection. Blood samples or measurement of amylase were obtained by direct intracardiac puncture. Pancreases were removed immediately, flash frozen in liquid nitrogen and stored −80° C. until assayed, for TNF-α protein by means of the sandwich ELISA method using an ELISA kit (Biolegend, San Diego, CA, USA) according to the manufacturer's instructions. Serum amylase activity was determined using a colorimetric assay kit (ab102523, Abcam). The values of serum amylase activity are expressed as units per litre (U/l).

[7] = whole kidney homogenates of diabetic mice
[8] = 1 μmole/kg 2HCl salt sc twice daily
[9] = listed as AN1927, Hydrochloride

NCCCN1CCc2ccccc21 [AN1264, di-p-Toluenesulfonate]
Reduction in caspase 3 activity compared with the other compounds (Caspase 3): less reduction in caspase 3 activity than the other compounds

COC(=O)CCN1CCc2ccc(OCc3ccccc3)cc21.Cc1ccc(S(=O)(=O)O)cc1 [AN1279, Methyl 3-(6-(Benzyloxy)indolin-1-yl)propanoate p-Toluenesulfonate]
Reduction in caspase 3 activity compared with the other compounds (Caspase 3): less reduction in caspase 3 activity than the other compounds

CC(C)NCCCN1CCc2ccccc21.Cc1ccc(S(=O)(=O)O)cc1 [AN1284, 3-(Indolin-1-yl)-N-isopropylpropan-1-amine di-p-Toluenesulfonate]
Decrease of the concentration that inhibited significantly the release of TNF-α [1]: 10 fold | IL-6 protein in the brain (LPS-injected mice): reduction | IL-6 protein in the liver (LPS-injected mice): reduction | Degree of hyperglycaemia ([2]; 2 μmoles/kg sc twice daily, fifteen weeks): did not affect | Renal mRNA expression level of fibronectin 1 ([2]; 0.5 mg/kg, sc): significantly normalised | Total fat mass ([2]; AN1284 2HCl 2 μmoles/kg sc twice daily for fifteen weeks, diabetic mice): further reduction | Blood urea nitrogen levels ([2]; chronic treatment): normalizing | Glomerular cross-sectional area ([2]; chronic treatment): normalizing | Urine albumin-to-creatinine ratio ([2]; chronic treatment): normalizing | Increased glomerular space area and mesangial expansion ([2]; versus diabetic-vehicle-treated animals): completely normalised | Kidney-to-body weight ratio ([2]; versus diabetic-vehicle-treated group): significantly reduced | mRNA expression level of IP-10 [2, 7]: significantly reduced | mRNA expression level of TIMP1 [2, 7]: significantly reduced | mRNA expression level of collagen-1 [2, 7]: significantly reduced | mRNA expression level of collagen-3 [2, 7]: significantly reduced | mRNA expression level of kidney injury marker lipocalin 2 [2, 7]: significantly reduced | Reduction (%) ± STD compared to LPS alone, IL-6 [3]: 64.7 ± 14.8% | MDSCs in the bone marrow and spleen (flow cytometry) (RERT/TSC1^f/f mice; [8]): significant reduction | T cells in the bone marrow and spleen (flow cytometry) (RERT/TSC1^f/f mice; [8]): significant reduction | Body weight decrease (RERT/TSC1^f/f mice; 1 μmole/kg 2HCl salt sc twice daily, versus untreated tamoxifen-challenged mice): much smaller decrease | Development of severe lethargy (RERT/TSC1^f/f mice; 1 μmole/kg of the 2HCl salt sc twice daily, from 5 weeks after tamoxifen, five weeks of treatment): none of the AN1284-treated mice developed severe lethargy | Renal cysts (RERT/TSC1^f/f mice; kidney histology): clear reduction | Cytokine levels of TNF-α and IL-6 in spleen and liver (RERT/TSC1^f/f mice; versus untreated group): significant reduction | Decrease of the concentration that inhibited significantly the release of NO [4]: 10 fold | Reduction (%) ± STD compared to LPS alone, TNF-α ([5]; 6 h after LPS, 1 × 10^−9 M): 55.3 ± 9.8% | Reduction (%) ± STD compared to LPS alone, TNF-α ([5]; 12 h after LPS, 1 × 10^−10 M): 41.1 ± 5.4% | Reduction (%) ± STD compared to LPS alone, TNF-α ([5]; 12 h after LPS, 1 × 10^−11 M): 7.1 ± 5.8 % | Reduction (%) ± STD compared to LPS alone, TNF-α ([5]; 24 h after LPS, 1 × 10^−9 M): 71.4 ± 9.7%

COC(=O)CCN1CCc2cc(OC)ccc21.Cl [AN1297, Methyl 3-(5-Methoxyindolin-1-yl)propanoate Hydrochloride]
IL-6 protein in the brain (LPS-injected mice): reduction | IL-6 protein in the liver (LPS-injected mice): reduction | Reduction (%) ± STD compared to LPS alone, IL-6 [3]: 62.4 ± 16.5% | Serum amylase ([6]; Hydrochloride): decreased significantly | Serum amylase [6, 9]: Dose related reduction | TNF-α protein in the pancreas ([6]; Hydrochloride): dose-dependently reduced | TNF-α protein in the pancreas [6, 9]: Dose related reduction | Reduction (%) ± STD compared to LPS alone, TNF-α ([5]; 6 h after LPS, 1 × 10^−9 M): 55.7 ± 11.5% | Reduction (%) ± STD compared to LPS alone, TNF-α ([5]; 12 h after LPS, 1 × 10^−10 M): 25.1 ± 10.9% | Reduction (%) ± STD compared to LPS alone, TNF-α ([5]; 12 h after LPS, 1 × 10^−11 M): 22.0 ± 7.2% | Reduction (%) ± STD compared to LPS alone, TNF-α ([5]; 24 h after LPS, 1 × 10^−9 M): 71.1 ± 8.9%
